Measurements published in patent US20250248970A1, “NOVEL SUBSTITUTED FLUORINATED N-PROPYL-PYRROLIDINE COMPOUNDS, PROCESSES FOR THEIR PREPARATION AND THERAPEUTIC USES THEREOF” (SANOFI, priority 2022, published 2025).

Columns and labels:
[1] = molecular target: T1, ERα (Homo sapiens, UniProt P03372); experiment: Estrogen receptor degradation activity (breast cancer cell ERα in cell western assay); format: cell-based; conditions: MCF7 cells; for % Degradation At 0.3 μM: 4 hours, % of ERα levels decrease relative to fulvestrant
T1 construct: host or cells: MCF7
T1 sequence (P03372 1-595): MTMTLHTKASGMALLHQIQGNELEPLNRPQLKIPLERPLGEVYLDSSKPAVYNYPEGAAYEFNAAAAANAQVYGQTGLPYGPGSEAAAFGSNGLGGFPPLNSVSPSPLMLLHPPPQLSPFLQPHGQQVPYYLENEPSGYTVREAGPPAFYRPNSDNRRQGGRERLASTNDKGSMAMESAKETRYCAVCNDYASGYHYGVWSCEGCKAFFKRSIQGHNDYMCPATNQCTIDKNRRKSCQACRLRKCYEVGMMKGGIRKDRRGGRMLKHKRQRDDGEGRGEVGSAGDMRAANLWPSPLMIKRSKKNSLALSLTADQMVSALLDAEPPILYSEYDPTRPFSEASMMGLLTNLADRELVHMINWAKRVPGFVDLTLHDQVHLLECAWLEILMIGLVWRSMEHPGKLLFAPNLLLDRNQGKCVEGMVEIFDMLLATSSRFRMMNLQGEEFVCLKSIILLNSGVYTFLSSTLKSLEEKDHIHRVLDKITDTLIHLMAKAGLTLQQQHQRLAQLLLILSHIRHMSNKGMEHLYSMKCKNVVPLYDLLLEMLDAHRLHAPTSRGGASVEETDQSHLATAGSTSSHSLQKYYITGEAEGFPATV
Summary of the method: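 MCF7 cells in phenol red-free MEM alpha with 5% charcoal-stripped FBS were exposed for 4 h to 9-point 1:5 dilutions (0.3–0.0000018 μM final). In-cell western: anti-ERα immunofluorescence normalized to Syto-64 DNA stain, scaled between DMSO and 0.1 μM fulvestrant; IC50 as 50% ERα degradation, in nM.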

[2] = test system: CYP3A4; experiment: CYP3A4 induction potential for ADME profile evaluation (CYP3A4 mRNA by RT-PCR in primary human hepatocytes); format: in vitro ADME; conditions: for CYP3A4 induction Emax (%): approximately 48 hours, 0.3-10 μM, relative to 10 μM rifampicin
Protocol: Such test is based, for example, on the quantification of CYP3A4 mRNA induction performed by RT-PCR analysis. Said % Emax may be calculated as detailed in the illustrative part under the following formula:
[formula] • ECompound: relative fold mRNA expression following treatment with test compound, • EPositive control: relative fold mRNA expression following reference inducer i.e., 10 μM rifampicin, • EVehicle control: relative fold mRNA expression following vehicle treatment i.e., 0.1% DMSO, and • E is the efficiency of the quantitative PCR.
Said test evaluates the potential induction effect of the tested compounds on CYP3A4 gene expression in primary cultures of human hepatocytes from one or two donors with established concentration-dependent response to the reference inducer, rifampicin.
Before seeding, cell viability was estimated using the Trypan blue dye exclusion test. Hepatocytes were seeded on collagen I-coated 96-well plates at a density of 70 000 cells/well in 100 μL of plating medium for at least 4 hours under a humidified atmosphere of CO2/air (5%/95%), at 37° C. After the cell attachment period, the plating medium was removed, and the hepatocytes were treated daily for 2 consecutive days (approximately 48 hours), with 100 μL per well of fresh culture medium containing either the vehicle control (0.1% DMSO) or the investigated compounds at four concentrations 0.3, 1, 3 and 10 μM, or rifampicin, the reference inducer at 10 μM. All incubations were performed in duplicates.
Ten mM stock solutions of the different compounds were diluted to obtain 0.3, 1 and 3 mM daughter solutions. The day of the experiment, stock solutions were diluted 1000-fold in the incubation/culture medium to achieve final concentrations of 0.3, 1, 3 and 10 μM.
After the 48-hour incubation period with the test compounds, the cell culture medium was removed, and the cells were lysed to release the RNA for CYP3A4 gene expression assessment. Quantification of CYP3A4 mRNA induction was performed by RT-PCR analysis.
Total RNA was extracted from hepatocytes using the King Fisher™ Flex Purification System with the MagMAX mirVana Total RNA Isolation kit (Thermo Fisher Scientific, USA). RNA was quantified by fluorimetry using the Quantifluor RNA System (Promega, USA) and cDNAs were synthesized from […] total RNA using the iScript Reverse Transcription Supermix for RT-qPCR from Biorad (France) at 42° C. for 30 min. cDNA samples were then diluted in water (1:5) and 5 μL of each sample was used for real-time PCR amplification by using the SYBR Green kit from Biorad (France). The following program was used: a denaturation step at 95° C. for 30 sec, and 40 cycles of PCR (denaturation, 95° C., 10 sec and annealing and extension, 58° C., 1 min). In all cases, the quality of the PCR product was assessed by monitoring a fusion step at the end of the run. Human forward and reverse primer sequences used were: 5′-CCT-GGC-ACC-CAG-CAC-AAT-3′ and 5′-GGG-CCG GAC-TCG-TCA-TAC-3′ for actin, 5′-CAC-AAA-CG-GAG-GCC-TTT-TG-3′ and 5′-ATC-CAT-GCT-GTA-GGC-CCC-AA-3′ for CYP3A4.
Cq (quantification cycle) values were determined using a multi-variable, non-linear regression model to individual well traces and then using this model an optimal Cq value was computed. Cq values are inversely proportional to the amount of target nucleic acid in the sample (i.e., lowest Cq level corresponds to the greatest amount of target nucleic acid in the sample). Cq of reference gene (in this study human actin) was also used as positive control of quantitative PCR.
The extent of induction or % of Emax, resulting from treatment with test compounds was calculated under the following formula: […]

% Degradation At 0.3 μM [1] [%]	CYP3A4 induction Emax (%) [2] [%]	CYP3A4 induction (in words) ([2]; rating based on % Emax relative to rifampicin)	degradation activity on estrogen receptors (in words) ([1]; tested at 0.3 μM)	SMILES
85	15			Cc1cccc(C2=C(c3ccc(CC4CCN(CCCF)C4)cc3)c3ccc(C(=O)O)cc3CCC2)c1C(F)(F)F (single isomer, unassigned; isomer 1) [Compound 30, 9-(4-((1-(3-fluoropropyl)pyrrolidin-3-yl)methyl)phenyl)-8-(3-methyl-2-(trifluoromethyl)phenyl)-6,7-dihydro-5H-benzo[7]annulene-3-carboxylic acid, Isomer 1]
85	7	no CYP3A4 induction		O=C(O)c1ccc2c(c1)CCCC(c1ccc(Cl)cc1Cl)=C2c1ccc(C[C@H]2CCN(CCCF)C2)cc1 [Compound 1, 8-(2,4-dichlorophenyl)-9-(4-((1-(3-fluoropropyl)pyrrolidin-3-yl)methyl)phenyl)-6,7-dihydro-5H-benzo[7]annulene-3-carboxylic acid, (S) Isomer]
89	85		significant degradation activity	O=C(O)c1ccc2c(c1)CCCC(c1ccc(Cl)cc1Cl)=C2c1ccc(N[C@H]2CCN(CCCF)C2)cc1 [Compound C2, (S)-8-(2,4-Dichlorophenyl)-9-(4-((1-(3-fluoropropyl)pyrrolidin-3-yl)amino)phenyl)-6,7-dihydro-5H-benzo[7]annulene-3-carboxylic acid, reference compound]
